Data set [1] has as its system Prepulse Inhibition (PPI). The data set is described as follows: Startle response in rat prepulse inhibition (PPI) model. It counts as in vivo. The note with it: SD male rats. The text has this:
Further, the fact that there is no risk, in the above-described compound or a pharmaceutically acceptable acid addition salt thereof, of causing impaired information processing related to cognitive deficiencies which is a symptom of schizophrenia can be confirmed by investigating the effect of the compound on the phenomenon wherein the startle response to a startle stimulus (pulse) in an animal is inhibited by presentation of a weak stimulus (prepulse) prior to presentation of a startle stimulus (pulse) (Prepulse Inhibition, PPI) according to the method described in Bio. Psychiatry., 57, 1550, 2005. In this method, inhibition of PPI indicates abnormality in information processing, and is known to reflect cognitive deficiencies, which is a symptom of schizophrenia, and the like.
In the experiments, 8 SD male rats of 9 to 10 weeks old were used per each group. The measurement was carried out using an apparatus for measuring startle responses of small animals (San Diego Instruments). […]

Data set [2] relates to PCP-induced hyperlocomotion. Put plainly: Mouse PCP-induced hyperlocomotion. It is filed as in vivo. The note with it: ddy male mice, PCP 10 mg/kg s.c.

The structures appear in SMILES notation. Where only a bound is given, the exact number is not on record here.

As for `CN(C(=O)/C=C/c1ccoc1)[C@@H]1CC[C@@]2(O)[C@H]3Cc4ccc(O)c5c4[C@@]2(CCN3CC2CC2)[C@H]1O5.Cl` [Compound 1, (−)-17-(Cyclopropylmethyl)-3,14β-Dihydroxy-4,5α-Epoxy-6β-[N-Methyl-Trans-3-(3-Furyl)Acrylamido]Morphinan Hydrochloric Acid Salt], the “effect on PPI (% Prepulse Inhibition)” value in data set [1] (0.03 mg/kg s.c., 30 minutes before stimulation session, 80 dB prepulse, 120 dB pulse) is “did not inhibit PPI”. The “dose statistically significantly inhibiting PCP-induced hyperlocomotion” value in data set [2] (test compound s.c. 1 minute before PCP, locomotor counts, vs vehicle-administered group) is reported as not below 0.01 mg/kg.
Turning to `C=C1CC[C@@]2(O)[C@H]3Cc4ccc(O)c5c4[C@@]2(CCN3CC2CC2)[C@H]1O5` [Nalmefene], in data set [2] (test compound at 10 mg/kg s.c.), the “effect on the amount of locomotion (PCP-induced hyperlocomotion)” value is on record as “did not have any effect”.
In the case of `c1ccc(C2(N3CCCCC3)CCCCC2)cc1` [Phencyclidine], in data set [1] (positive control at 4 mg/kg, p<0.05 against the vehicle-administered group), the “effect on PPI (% Prepulse Inhibition)” value is on record as “statistically significant inhibitory effect on PPI”.

For the origin of these results see patent publication US8183256B2, “Remedy or preventive for integration dysfunction syndrome” (Toray Industries, Inc., priority 2008, dated 2012).
